Data as given in patent US10640512B2, “Imidazopyrazinamine phenyl derivative and use thereof” (HANGZHOU SANYINTAI PHARMACEUTICAL TECHNOLOGY CO., LTD., priority 2016, dated 2020).
Where two headings read alike, the source gives them in different places.

Legend:
BTK = BTK (Homo sapiens, UniProt Q06187); experiment: Caliper Mobility Shift Assay, kinase inhibition; assay type: biochemical; conditions: for IC50: BTK enzyme activity; for inhibiting effects on BTK kinase (in words): summary of Table 1
Sequence of BTK (Q06187 whole entry): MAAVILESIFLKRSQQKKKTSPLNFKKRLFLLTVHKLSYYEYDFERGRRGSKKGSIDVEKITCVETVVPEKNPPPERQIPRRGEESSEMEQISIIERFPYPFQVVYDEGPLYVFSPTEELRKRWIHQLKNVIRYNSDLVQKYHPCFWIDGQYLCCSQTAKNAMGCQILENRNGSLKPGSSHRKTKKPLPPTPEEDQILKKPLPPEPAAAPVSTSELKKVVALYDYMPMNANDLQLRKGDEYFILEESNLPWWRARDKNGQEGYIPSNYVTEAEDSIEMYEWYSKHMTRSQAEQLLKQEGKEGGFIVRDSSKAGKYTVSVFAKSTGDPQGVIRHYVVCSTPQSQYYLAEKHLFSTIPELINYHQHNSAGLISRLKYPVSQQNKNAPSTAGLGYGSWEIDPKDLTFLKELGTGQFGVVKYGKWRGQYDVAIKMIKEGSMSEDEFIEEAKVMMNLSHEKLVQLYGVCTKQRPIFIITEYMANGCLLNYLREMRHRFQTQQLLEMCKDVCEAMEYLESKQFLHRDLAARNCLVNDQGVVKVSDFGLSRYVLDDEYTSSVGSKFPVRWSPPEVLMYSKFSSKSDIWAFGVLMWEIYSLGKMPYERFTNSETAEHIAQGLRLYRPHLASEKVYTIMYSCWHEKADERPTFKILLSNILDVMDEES
Excerpt: (§1) The test method used was the Caliper Mobility Shift Assay, the kinases to be tested are BTK, ITK, TEC, EGFR, HER2, HER4, JAK3, HCK, LYN, SRC and SYK. The standard reference compound used was staurosporine.

[1] = In vitro liver microsomal metabolism (human); assay type: in vitro ADME; conditions: human liver microsomes; for half-life: NADPH, 37° C., read-out: T1/2 in liver microsomes; for CLint scaled: calculated from elimination half life, read-out: intrinsic clearance (CLint)
Procedure: (§2) In addition, in vitro liver microsomal metabolism of the compounds of the present invention was also tested. The test compound was co-incubated with NADPH and mouse or human liver microsomes in a 37° C. water bath pot, a reaction was initiated by adding the test compound. […] was taken at different time points (0, 10, 20, 40 and 60 minutes) and transferred to acetonitrile containing an internal standard. After proteins were precipitated, the supernatant was obtained by centrifugation. The test compound in the supernatant was analyzed by the LC-MS/MS method. The intrinsic clearance in vitro was calculated according to the elimination half life of the test compound in the incubation system. Midazolam was subjected to parallel incubation as a positive control. […] Tests of the other compounds of the present invention also had similar results.

[2] = system: ITK, TEC, EGFR, HER2, HER4, JAK3, HCK, LYN, SRC and SYK; experiment: Kinase selectivity panel, Caliper Mobility Shift Assay; assay type: biochemical; conditions: summary of Table 2
Procedure: The semi-inhibitory concentration IC50 of the compound (the concentration of the compound required to inhibit the enzyme activity to 50%) is determined by mixing a fixed enzyme with a specific substrate and different concentrations of the test compounds. The test method used was the Caliper Mobility Shift Assay, the kinases to be tested are BTK, ITK, TEC, EGFR, HER2, HER4, JAK3, HCK, LYN, SRC and SYK. The standard reference compound used was staurosporine.
The results of experiments on the inhibitions of ITK, TEC, EGFR, HER2, HER4, JAK3, HCK, LYN, SRC and SYK enzyme activities by the target compound Id were summarized in Table 2. […] This selective inhibiting effect has important values for the treatment of diseases such as rheumatoid arthritis, B cell lymphoma, leukemia, multiple myeloma, allergies, asthma, multiple sclerosis, type I diabetes and systemic lupus erythematosus. The tests of other compounds of the present invention also have similar results.

[3] = Pharmacokinetic properties in CD-1 mouse; assay type: in vivo; conditions: both sexes, plasma; for AUC(0-t): read-out: AUClast (area under the curve); for half-life: read-out: Terminal t1/2 (half life) (converted)
Procedure: Experiment animals: CD-1 mouse, males and females; body weight: 20-25 g;
Route of administration: oral/intravenous. […]
Sample collection: blood samples were collected at the following time points: 5 minutes, 15 minutes, 30 minutes, 1 hours, 2 hours, 4 hours, 8 hours and 24 hours after administration.
Sample analysis: The collected samples were tested using the LC-MS/MS method. The model of the instrument used was API4000.
Pharmacokinetic data analysis: the obtained plasma concentration data were fitted and calculated according to the non-compartmental model method using WinNolin.
In Table 3, CL: clearance. VSS: apparent volume of distribution at steady state. Terminal t1/2: half life. AUClast: area under the curve. MRTINF: average residence time. Tmax: peak time. Cmax: peak concentration. F: bioavailability, refers to the fraction of oral dosage actually reaching the blood circulation.

ITK = biological target: T1, ITK (Homo sapiens, UniProt Q08881); experiment: Caliper Mobility Shift Assay, kinase inhibition; assay type: biochemical
T1 sequence (Q08881 1-620): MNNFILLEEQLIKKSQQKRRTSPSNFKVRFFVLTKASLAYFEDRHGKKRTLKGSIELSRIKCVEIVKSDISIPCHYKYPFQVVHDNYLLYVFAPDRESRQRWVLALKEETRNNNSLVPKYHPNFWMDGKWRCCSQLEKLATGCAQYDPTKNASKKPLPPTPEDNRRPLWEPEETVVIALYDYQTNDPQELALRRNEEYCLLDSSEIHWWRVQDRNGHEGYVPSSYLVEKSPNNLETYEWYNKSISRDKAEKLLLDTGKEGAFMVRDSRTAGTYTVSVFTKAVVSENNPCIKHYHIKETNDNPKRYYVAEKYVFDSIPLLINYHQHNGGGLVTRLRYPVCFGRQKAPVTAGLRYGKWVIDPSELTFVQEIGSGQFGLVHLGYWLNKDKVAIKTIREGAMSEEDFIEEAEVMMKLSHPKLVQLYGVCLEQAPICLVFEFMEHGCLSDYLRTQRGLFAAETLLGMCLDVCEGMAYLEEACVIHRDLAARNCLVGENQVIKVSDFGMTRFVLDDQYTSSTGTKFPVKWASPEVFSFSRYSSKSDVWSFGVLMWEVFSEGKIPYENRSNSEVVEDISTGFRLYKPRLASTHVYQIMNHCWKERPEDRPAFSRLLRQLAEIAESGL
Excerpt: as §1

HER4 = HER4 (Homo sapiens, UniProt Q15303); experiment: Caliper Mobility Shift Assay, kinase inhibition; assay type: biochemical
Sequence of HER4 (Q15303 26-1308): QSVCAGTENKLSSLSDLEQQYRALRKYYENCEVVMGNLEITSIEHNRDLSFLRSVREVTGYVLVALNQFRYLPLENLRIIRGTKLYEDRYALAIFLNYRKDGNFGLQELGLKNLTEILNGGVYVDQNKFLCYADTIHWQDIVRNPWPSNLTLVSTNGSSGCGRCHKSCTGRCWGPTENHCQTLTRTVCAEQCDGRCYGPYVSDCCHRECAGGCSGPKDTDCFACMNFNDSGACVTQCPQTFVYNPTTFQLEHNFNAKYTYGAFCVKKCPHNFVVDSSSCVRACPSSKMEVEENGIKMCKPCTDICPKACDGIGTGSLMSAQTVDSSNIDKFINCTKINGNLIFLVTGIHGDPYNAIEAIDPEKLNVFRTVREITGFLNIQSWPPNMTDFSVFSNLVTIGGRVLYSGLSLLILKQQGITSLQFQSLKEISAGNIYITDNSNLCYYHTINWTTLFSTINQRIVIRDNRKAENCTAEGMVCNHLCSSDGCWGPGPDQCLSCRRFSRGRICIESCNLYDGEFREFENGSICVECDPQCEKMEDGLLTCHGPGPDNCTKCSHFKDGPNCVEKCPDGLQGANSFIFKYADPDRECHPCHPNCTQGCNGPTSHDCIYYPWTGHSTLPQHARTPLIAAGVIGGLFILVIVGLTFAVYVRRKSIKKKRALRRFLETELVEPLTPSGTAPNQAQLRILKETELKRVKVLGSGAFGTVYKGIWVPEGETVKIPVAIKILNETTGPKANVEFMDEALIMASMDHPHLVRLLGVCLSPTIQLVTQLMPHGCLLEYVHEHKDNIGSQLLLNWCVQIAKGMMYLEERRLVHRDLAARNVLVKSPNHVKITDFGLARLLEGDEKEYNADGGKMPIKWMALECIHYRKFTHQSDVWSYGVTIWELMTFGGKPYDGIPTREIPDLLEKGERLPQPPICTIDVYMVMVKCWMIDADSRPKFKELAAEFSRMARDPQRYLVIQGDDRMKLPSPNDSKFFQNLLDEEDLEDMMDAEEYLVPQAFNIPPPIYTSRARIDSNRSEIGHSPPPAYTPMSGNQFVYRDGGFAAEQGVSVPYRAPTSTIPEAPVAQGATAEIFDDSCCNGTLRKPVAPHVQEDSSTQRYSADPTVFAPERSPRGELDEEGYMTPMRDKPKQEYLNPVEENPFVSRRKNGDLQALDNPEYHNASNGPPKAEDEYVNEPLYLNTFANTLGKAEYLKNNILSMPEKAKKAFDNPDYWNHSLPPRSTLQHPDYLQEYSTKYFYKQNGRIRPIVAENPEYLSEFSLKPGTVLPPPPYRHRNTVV
Excerpt: as §1

LYN = LYN (Homo sapiens, UniProt P07948); experiment: Caliper Mobility Shift Assay, kinase inhibition; assay type: biochemical
Sequence of LYN (P07948 whole entry): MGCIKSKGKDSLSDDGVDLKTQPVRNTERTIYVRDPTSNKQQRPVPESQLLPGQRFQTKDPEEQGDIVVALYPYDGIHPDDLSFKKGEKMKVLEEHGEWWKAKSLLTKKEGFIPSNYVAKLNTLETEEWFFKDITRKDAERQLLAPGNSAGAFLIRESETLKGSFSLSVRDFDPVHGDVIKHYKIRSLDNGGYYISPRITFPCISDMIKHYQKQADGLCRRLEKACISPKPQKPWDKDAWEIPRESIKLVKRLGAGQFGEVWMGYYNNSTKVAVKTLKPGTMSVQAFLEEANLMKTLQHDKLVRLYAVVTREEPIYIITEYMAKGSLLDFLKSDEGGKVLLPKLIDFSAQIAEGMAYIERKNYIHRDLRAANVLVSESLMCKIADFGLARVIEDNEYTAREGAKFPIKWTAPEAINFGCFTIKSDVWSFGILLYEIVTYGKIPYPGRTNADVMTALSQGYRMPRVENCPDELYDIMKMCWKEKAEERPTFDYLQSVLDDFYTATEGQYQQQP
Excerpt: as §1

HER2 = HER2 (Homo sapiens, UniProt P04626); experiment: Caliper Mobility Shift Assay, kinase inhibition; assay type: biochemical
Excerpt: as §1

SYK = SYK (Homo sapiens, UniProt P43405); experiment: Caliper Mobility Shift Assay, kinase inhibition; assay type: biochemical
Excerpt: as §1

EGFR = EGFR (Homo sapiens, UniProt P00533); experiment: Caliper Mobility Shift Assay, kinase inhibition; assay type: biochemical
Sequence of EGFR (P00533 25-1210): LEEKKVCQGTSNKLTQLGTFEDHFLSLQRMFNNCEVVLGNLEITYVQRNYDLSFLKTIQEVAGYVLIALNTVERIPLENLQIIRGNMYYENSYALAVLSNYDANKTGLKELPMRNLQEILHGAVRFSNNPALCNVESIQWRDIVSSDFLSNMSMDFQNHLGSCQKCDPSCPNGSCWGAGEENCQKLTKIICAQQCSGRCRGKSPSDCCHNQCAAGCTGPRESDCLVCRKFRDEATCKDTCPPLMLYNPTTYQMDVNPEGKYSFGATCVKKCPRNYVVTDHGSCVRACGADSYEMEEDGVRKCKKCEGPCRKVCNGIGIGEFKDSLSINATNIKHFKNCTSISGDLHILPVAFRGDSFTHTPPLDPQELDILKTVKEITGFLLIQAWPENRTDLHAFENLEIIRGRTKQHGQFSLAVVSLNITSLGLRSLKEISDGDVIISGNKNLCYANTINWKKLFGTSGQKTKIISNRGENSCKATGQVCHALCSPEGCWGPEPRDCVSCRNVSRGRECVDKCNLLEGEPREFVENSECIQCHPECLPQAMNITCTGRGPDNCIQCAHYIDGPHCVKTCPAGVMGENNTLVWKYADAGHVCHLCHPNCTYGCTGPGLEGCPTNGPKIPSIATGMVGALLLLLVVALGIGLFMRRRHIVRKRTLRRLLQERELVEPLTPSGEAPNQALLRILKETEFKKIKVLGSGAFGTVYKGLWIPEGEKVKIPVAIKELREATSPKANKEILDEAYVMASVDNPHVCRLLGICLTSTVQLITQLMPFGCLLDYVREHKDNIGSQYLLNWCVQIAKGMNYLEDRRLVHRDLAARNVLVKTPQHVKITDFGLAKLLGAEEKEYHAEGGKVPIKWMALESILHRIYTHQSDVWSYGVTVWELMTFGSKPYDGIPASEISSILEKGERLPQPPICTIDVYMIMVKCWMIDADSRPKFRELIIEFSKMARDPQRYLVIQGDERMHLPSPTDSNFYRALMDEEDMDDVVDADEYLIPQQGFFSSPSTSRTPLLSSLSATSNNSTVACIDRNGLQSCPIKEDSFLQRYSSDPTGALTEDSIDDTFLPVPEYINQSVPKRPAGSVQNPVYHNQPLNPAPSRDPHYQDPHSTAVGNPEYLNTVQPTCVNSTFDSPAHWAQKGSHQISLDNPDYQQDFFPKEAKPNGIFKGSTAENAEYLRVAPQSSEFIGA
Excerpt: as §1

HCK = HCK (Homo sapiens, UniProt P08631); experiment: Caliper Mobility Shift Assay, kinase inhibition; assay type: biochemical
Sequence of HCK (P08631 whole entry): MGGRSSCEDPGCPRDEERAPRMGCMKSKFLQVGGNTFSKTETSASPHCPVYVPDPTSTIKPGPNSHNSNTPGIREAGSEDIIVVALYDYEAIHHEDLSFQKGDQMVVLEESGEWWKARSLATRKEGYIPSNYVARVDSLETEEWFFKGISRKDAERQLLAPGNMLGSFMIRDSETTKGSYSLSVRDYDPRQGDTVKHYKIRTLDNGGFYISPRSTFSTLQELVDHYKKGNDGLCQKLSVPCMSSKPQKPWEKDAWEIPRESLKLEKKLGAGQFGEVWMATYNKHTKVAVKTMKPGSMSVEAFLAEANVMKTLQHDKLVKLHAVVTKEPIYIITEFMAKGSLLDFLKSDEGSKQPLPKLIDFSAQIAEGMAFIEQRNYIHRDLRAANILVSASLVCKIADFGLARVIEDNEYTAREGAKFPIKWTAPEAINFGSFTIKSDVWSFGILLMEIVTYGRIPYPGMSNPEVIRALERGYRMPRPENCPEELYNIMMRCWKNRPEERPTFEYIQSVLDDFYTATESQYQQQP
Excerpt: as §1

TEC = biological target: T2, TEC (Homo sapiens, UniProt P42680); experiment: Caliper Mobility Shift Assay, kinase inhibition; assay type: biochemical
T2 sequence (P42680 1-631): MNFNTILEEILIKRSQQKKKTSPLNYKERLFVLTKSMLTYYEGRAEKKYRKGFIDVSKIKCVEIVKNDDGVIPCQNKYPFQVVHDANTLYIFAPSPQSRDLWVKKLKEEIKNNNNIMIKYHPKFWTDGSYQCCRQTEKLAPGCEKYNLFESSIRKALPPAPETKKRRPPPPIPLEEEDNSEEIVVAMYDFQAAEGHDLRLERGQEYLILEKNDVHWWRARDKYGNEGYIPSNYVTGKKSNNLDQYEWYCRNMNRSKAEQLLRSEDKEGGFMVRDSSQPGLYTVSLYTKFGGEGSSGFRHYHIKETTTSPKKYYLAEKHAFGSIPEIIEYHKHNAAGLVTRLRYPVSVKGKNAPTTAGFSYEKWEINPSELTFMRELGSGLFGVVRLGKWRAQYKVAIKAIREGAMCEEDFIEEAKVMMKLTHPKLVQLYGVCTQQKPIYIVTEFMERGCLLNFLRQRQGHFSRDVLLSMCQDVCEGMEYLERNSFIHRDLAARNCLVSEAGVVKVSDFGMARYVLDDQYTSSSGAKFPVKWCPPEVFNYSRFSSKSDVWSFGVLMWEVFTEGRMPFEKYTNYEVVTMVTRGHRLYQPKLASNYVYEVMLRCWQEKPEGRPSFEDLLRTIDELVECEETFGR
Excerpt: as §1

SRC = SRC (Homo sapiens, UniProt P12931); experiment: Caliper Mobility Shift Assay, kinase inhibition; assay type: biochemical
Sequence of SRC (P12931 whole entry): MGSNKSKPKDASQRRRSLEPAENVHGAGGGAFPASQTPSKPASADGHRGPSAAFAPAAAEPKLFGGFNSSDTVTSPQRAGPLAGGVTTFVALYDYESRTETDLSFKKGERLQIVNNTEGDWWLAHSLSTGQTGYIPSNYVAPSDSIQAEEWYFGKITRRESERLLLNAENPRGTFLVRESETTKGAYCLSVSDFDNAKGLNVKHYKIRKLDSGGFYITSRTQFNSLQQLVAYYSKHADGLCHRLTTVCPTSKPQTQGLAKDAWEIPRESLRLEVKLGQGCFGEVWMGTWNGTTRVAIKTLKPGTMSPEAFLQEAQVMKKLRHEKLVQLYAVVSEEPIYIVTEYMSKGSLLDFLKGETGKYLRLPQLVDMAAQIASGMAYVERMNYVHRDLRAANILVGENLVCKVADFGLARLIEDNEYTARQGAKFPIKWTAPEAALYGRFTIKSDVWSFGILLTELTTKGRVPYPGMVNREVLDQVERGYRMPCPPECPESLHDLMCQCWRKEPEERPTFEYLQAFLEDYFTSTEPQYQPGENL
Excerpt: as §1

JAK3 = biological target: T3, JAK3 (Homo sapiens, UniProt P52333); experiment: Caliper Mobility Shift Assay, kinase inhibition; assay type: biochemical
T3 sequence (P52333 1-1124): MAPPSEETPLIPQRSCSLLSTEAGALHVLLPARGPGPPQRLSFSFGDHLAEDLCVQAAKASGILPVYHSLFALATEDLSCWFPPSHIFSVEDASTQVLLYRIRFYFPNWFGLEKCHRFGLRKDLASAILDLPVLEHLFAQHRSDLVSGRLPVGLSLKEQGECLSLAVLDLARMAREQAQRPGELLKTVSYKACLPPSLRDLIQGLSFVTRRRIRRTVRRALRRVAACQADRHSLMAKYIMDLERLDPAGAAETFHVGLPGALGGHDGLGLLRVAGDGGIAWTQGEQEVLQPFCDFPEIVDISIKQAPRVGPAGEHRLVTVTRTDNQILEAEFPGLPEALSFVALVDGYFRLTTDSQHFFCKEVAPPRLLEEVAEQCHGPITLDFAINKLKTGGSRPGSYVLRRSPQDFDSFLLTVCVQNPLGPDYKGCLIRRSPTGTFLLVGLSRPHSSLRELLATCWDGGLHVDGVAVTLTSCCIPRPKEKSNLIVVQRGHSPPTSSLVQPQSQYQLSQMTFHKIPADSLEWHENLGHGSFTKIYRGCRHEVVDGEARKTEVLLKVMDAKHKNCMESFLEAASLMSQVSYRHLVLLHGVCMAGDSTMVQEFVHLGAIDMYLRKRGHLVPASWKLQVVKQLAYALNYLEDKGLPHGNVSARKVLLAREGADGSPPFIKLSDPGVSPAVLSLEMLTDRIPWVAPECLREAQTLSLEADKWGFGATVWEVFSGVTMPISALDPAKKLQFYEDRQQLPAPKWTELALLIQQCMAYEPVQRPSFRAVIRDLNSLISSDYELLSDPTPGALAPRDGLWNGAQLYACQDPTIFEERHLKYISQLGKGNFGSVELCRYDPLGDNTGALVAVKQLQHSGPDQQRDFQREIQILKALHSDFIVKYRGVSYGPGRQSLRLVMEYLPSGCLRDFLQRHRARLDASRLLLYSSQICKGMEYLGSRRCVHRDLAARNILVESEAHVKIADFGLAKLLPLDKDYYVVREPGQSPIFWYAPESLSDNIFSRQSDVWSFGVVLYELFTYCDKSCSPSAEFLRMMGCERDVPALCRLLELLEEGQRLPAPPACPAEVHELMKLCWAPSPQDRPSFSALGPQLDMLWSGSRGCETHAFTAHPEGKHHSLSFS
Excerpt: as §1

[4] = In vitro liver microsomal metabolism (mouse); assay type: in vitro ADME; conditions: for half-life / CLint scaled: mouse liver microsomes; for half-life: NADPH, 37° C., read-out: T1/2 in liver microsomes; for CLint scaled: calculated from elimination half life, read-out: intrinsic clearance (CLint)
Procedure: as §2

[5] = disclosed in a conference paper (2nd International Conference on New Concepts in B-cell Malignancies, 2016); cited from earlier work
[6] = 3 mg/kg, intravenous injection, single administration
[7] = 15 mg/kg, oral, single administration

Row | Compound | IC50 (BTK) [nM] | inhibiting effects on BTK kinase (in words) (BTK) | half-life [1] [min] | CLint scaled [1] [mL/min/kg] | IC50 (LYN) [nM] | IC50 (SYK) [nM] | IC50 (HCK) [nM] | IC50 (SRC) [nM] | half-life [4] [min] | CLint scaled [4] [mL/min/kg] | also measured
1 | CC#CC(=O)N1CCC[C@H]1c1nc(-c2ccc(Oc3ccccn3)cc2)c2c(N)nccn12 [Compound of formula Ic] | 577 | strong inhibiting effects | – | – | – | – | – | – | – | – | –
2 | CC#CC(=O)N1CCC[C@H]1c1nc(-c2ccc(NC(=O)c3ccccn3)cc2)c2c(N)nccn12 [Compound of formula Ia] | 415 | strong inhibiting effects | – | – | – | – | – | – | – | – | –
3 | CC#CC(=O)N1CCC[C@H]1c1nc(-c2ccc(C(=O)Nc3ccccn3)cc2)c2c(N)nccn12 [Acalabrutinib, acalabrutinib, reference compound] | – | – | 11.9 | 146 | > 1000 | > 1000 | > 1000 | > 1000 | 23.3 | 234 | half life [5]: 67.8 min

More lines, main results first:

Row | IC50 (BTK) [nM] | inhibiting effects on BTK kinase (in words) (BTK) | half-life [1] [min] | CLint scaled [1] [mL/min/kg] | IC50 (LYN) [nM] | IC50 (SYK) [nM] | IC50 (HCK) [nM] | IC50 (SRC) [nM] | half-life [4] [min] | CLint scaled [4] [mL/min/kg] | Compound | also measured
4 | 4.8 | very strong inhibiting effects | 3.13 | 555 | > 1000 | > 1000 | > 1000 | > 1000 | 8.26 | 661 | CC#CC(=O)N1CCC[C@H]1c1nc(-c2ccc(Oc3ccccc3)cc2)c2c(N)nccn12 [Compound of formula Id] | selective inhibiting activity (in words) [2]: good; AUC(0-t) [3, 6]: 661 ng·h/mL; clearance ([3]; 3 mg/kg, intravenous injection, single administration, read-out: CL (clearance) (converted)): 77 mL/min/kg; MRT inf ([3]; 3 mg/kg, intravenous injection, single administration, read-out: MRTINF (average residence time)): 17.8 min; half-life [3, 6]: 17.2 min; Vd ([3]; 3 mg/kg, intravenous injection, single administration, read-out: Vss (apparent volume of distribution at steady state)): 1.3 L/kg; bioavailability ([3]; 15 mg/kg oral vs 3 mg/kg intravenous, read-out: F (bioavailability)): 56.4%; AUC(0-t) [3, 7]: 1880 ng·h/mL; Cmax ([3]; 15 mg/kg, oral, single administration, read-out: Cmax (peak concentration)): 848 ng/mL; half-life [3, 7]: 98.4 min; Tmax ([3]; 15 mg/kg, oral, single administration, read-out: Tmax (peak time)): 15 min; IC50 (ITK): > 1000 nM; IC50 (HER4): > 1000 nM; IC50 (HER2): > 1000 nM; IC50 (EGFR): > 1000 nM; IC50 (TEC): 40 nM; IC50 (JAK3): > 1000 nM; metabolism rate relative to acalabrutinib (in words) ([4]; mouse or human liver microsomes): metabolized faster than acalabrutinib
5 | 50 | very strong inhibiting effects | – | – | – | – | – | – | – | – | CC#CC(=O)N1CCC[C@H]1c1nc(-c2ccc(C(=O)Nc3ccccn3)c(C)c2)c2c(N)nccn12 [Compound of formula Ib] | –
